Laboratory results reported in article PMC4167698, “Fatty Acid Esters of Phloridzin Induce Apoptosis of Human Liver Cancer Cells through Altered Gene Expression” (PLoS ONE, 2014).

Tests used:
[1] = tested on: LNCaP prostate cancer cells; design: method as in PMID 20714300; settings: 100 µM; cited from earlier work
[2] = tested on: HepG2 cells; assay: MTS cell proliferation assay, HepG2; assay type: cell-based, human; settings: Homo sapiens, MTS
In short: (§1)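 MTS read-out (OD490, 3 h with PMS) after 3, 6, 12, 18 or 24 h exposure to 0.1–100 µM compound; HepG2 and MDA-MB-231 at 5×10^3 cells/well, human and rat hepatocytes at 1×10^4 cells/well, triplicate.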

[3] = tested on: DNA topo IIα; design: method as in PMID 7769390; settings: cited from earlier work
[4] = tested on: HepG2 cells; assay: Mitochondrial membrane potential (JC-1); assay type: cell-based, human; settings: HepG2, 100 µM, 24 h
Method: HepG2 cells were seeded in a black walled clear bottom 96-well sterile flat bottom tissue culture plates (BD Biosciences, USA) at a density of 5×10^4 cells/well (100 µL) and incubated in a CO2 incubator for 24 h at 37°C. […] The staining solution JC-1 was prepared with PBS and 5 µM was added to each well. The cells were further incubated in a CO2 incubator at 37°C for 1 h. After washing the plate with PBS twice, the fluorescence was measured using a Fluostar Optima microplate reader (BMG Labtech) at 535 nm for JC-1 monomers and at 590 nm for JC-1 aggregates.

[5] = tested on: HepG2 cells; assay: LDH release cytotoxicity assay; assay type: cell-based, human; settings: HepG2, 100 µM, 6 h, relative to maximum release by 1% Triton X-100
Method: Lactate dehydrogenase (LDH) is a stable cytosolic enzyme that is released upon membrane damage in apoptotic/necrotic cells. LDH activity was measured using CytoTox 96 Non-Radioactive Cytotoxicity Assay (Promega, Madison, WI, USA), in which LDH released in culture supernatants is measured with a coupled enzymatic assay, resulting in conversion of a tetrazolium salt into a red formazan product. […] After centrifugation, the supernatant was removed to an assay plate, and the LDH released from the cells into culture medium was measured. The maximal release was obtained after treating control cells with 1% Triton X-100 for 30 min at room temperature. The apoptotic/necrotic percentage was expressed using the formula: (sample value/maximal release)×100%.

[6] = glycosylation at 2-OH; cited from earlier work
[7] = tested on: normal human hepatocytes (HP-F); assay: MTS cell viability assay, normal human hepatocytes; assay type: cell-based; settings: Hepatocyte, 24 h
In short: as §1

[8] = tested on: HepG2 cells; assay: Morphologic observation under inverted phase contrast microscope; assay type: cell-based, human; settings: HepG2, 100 µM, 24 h
Method: After 24 h of treatment, the morphology of HepG2 cells was observed under an inverted phase contrast microscope (Nikon Eclipse E 100, Nikon, Mississauga, ON, Canada) and were captured at 400X magnification using Infinity digital microscopy camera (Lumenera corporation, Ottawa, ON, Canada).

[9] = tested on: BALB-MC.E12 mouse mammary tumor cells; design: method as in PMID 17827407; settings: antitumor activity study of apple polyphenols; cited from earlier work
[10] = tested on: B16 mouse melanoma cells; design: method as in PMID 17827407; settings: antitumor activity study of apple polyphenols; cited from earlier work

## O=C(CCc1ccc(O)cc1)c1c(O)cc(O)cc1O [Phloretin]
[1]
  TRAIL-induced apoptosis and cytotoxicity: augmented
[2]; HepG2, 3 h
  EC50: > 100 µM
[2]; HepG2, 6 h
  EC50: > 100 µM
[2]; HepG2, 12 h
  EC50: > 100 µM
[2]; HepG2, 18 h
  EC50: > 100 µM
[2]; HepG2, 24 h
  EC50: 97.2 µM
[3]
  DNA topo IIα unknotting activity: inhibit DNA topo IIα unknotting activity
[4]
  mitochondrial membrane potential: significant (P<0.05) reduction
[5]
  LDH release: 7.9±0.5%

## O=C(CCc1ccc(O)cc1)c1c(O)cc(O)cc1O[C@@H]1O[C@H](CO)[C@@H](O)[C@H](O)[C@H]1O [Phloridzin, phloretin 2′-O-glucoside]
[6]
  decrease of antioxidant activities in comparison to phloretin: 18 times
[2]; HepG2, 3 h
  EC50: > 100 µM
[2]; HepG2, 6 h
  EC50: > 100 µM
[2]; HepG2, 12 h
  EC50: > 100 µM
[2]; HepG2, 18 h
  EC50: > 100 µM
[2]; HepG2, 24 h
  EC50: > 100 µM
[7]
  EC50: > 100 µM
[8]
  apoptotic morphological changes: no effect
[9]
  proliferation of BALB-MC.E12 mouse mammary tumor cells: did not affect the proliferation
[10]
  proliferation of transplanted B16 mouse melanoma cells: did not affect the proliferation
